Reference: patent US20020192233A1, “Human T cell response to MHC-binding motif clusters” (priority 2000, published 2002)

Key:
[1] = system: peripheral blood mononuclear cells from Mtb-immune (PPD skin-test positive) subjects; type: cell-based, human; settings: for % responders among Mtb-immune subjects: 40 Mtb-immune subjects; for Phil # responders (n = 38) / Phil % responders (n = 38): Philippines cohort; for Phil # responders (n = 38) / Phil % responders (n = 38) / Prov # responders (n = 22) / Prov % responders (n = 22): positive if SI≧2.0, peptide 1 and 10 μg/ml; for Prov # responders (n = 22) / Prov % responders (n = 22): Providence cohort
[2] = system: peripheral blood mononuclear cells from Mtb-naïve (PPD skin-test negative) subjects; assay: Lymphoproliferation assay ([3H]thymidine, stimulation index), Mtb-naïve group; type: cell-based, human; settings: 19 Mtb-naïve controls; SI≧2.0

| Sequence | % responders among Mtb-immune subjects ([1]; SI≧2.0) | Phil # responders (n = 38) [1] | Phil % responders (n = 38) [1] | Prov # responders (n = 22) [1] | Prov % responders (n = 22) [1] | number of Mtb-immune responders (proliferative response) ([1]; all 40 Mtb-immune subjects, SI≧2.0) | Mtb-naïve controls who responded [2] |
| --- | --- | --- | --- | --- | --- | --- | --- |
| FAYGSFVRTVSLPVGA (listed as Mycobacterium tuberculosis) [16-5, aa 92-107 of 16 kDa Mtb protein] | 28% | 4 | 10% | 7 | 18% | six | none |
| PLLNVGKLIANNTRVWVY (listed as Mycobacterium tuberculosis) [32-8, aa 193-210 of 32 kDa Mtb protein (Antigen 85A)] | 25% | 5 | 13% | 0 | 0% | – | none |
